Experimental data taken from US10166279B2, “Vaccine” (Bergen Teknologioverføring AS, priority 2013, dated 2019).
Peptide text beside a SMILES is read from it.

Assays:
anti-STp mAb clone 30 = test: Competitive ELISA with anti-STp antibodies (polyclonal, mAbs clone 29, 30, 31); format: binding; conditions: anti-STp mAb Clone 30, competitive ELISA
Experimental: (§1) The anti-STh mAb ST:G8 was kindly supplied by S. Visweswariah [Garrett & Visweswariah; PMID: 8950201]. The anti-STp mAbs clone 29, clone 30, and clone 31 were obtained from Fitzgerald Industries International.
ELISA-plates (Nunc Amino Immobilizer) were coated with STh-OvA conjugate in PBS, volume 100 μl per well (synthetic STh conjugated to OvA: For ST:G8 0.04 μl/well, for clone 29 and clone 30 0.01 μl/well). Plates were incubated overnight at 4 C. Subsequently, plates were emptied and blocked with PBS-T 1% OvA for 1h at 20° C. with shaking 180 rpm. After washing (3× with PBS-T) a volume of 60 μl of sample and 60 μl of primary antibody dilution was added to wells. Final dilutions of mAbs were as follows: ST:G8 1:6500, clone 29 1:16000, clone 30 1: 30000. Competitive incubation was performed for 90 minutes at 180 rpm, 20 C. Plates were then washed with 3×200 μl PBS-T and incubated at room-temperature for 1h with secondary antibody diluted in PBS-T 100 μl per well (anti-mouse dilution 1:400 for the ST:G8 ELISA, anti-mouse dilution 1:2000 for clone 29 and clone 30 ELISA). After renewed washing with 3×200 μl PBS-T, plates were developed with 100 μl developing buffer for 15-20 minutes. Developing was stopped by adding 50 μl NaOH 2M to each well, and OD was read at 405 nm with a Fluostar Optima plate reader.
For the clone 31 mAb a slightly different protocol was developed. […]

anti-STh mAb ST:G8 = test: Competitive ELISA with anti-STh antibodies (polyclonal, mAb ST:G8); format: binding; conditions: polyclonal and monoclonal (ST:G8) anti-STh antibodies
Experimental: Competitive STh ELISA was performed as previously described (PMID: 6520401; Lockwood and Robertson, J Immunol Methods. 1984 Dec. 31; 75(2):295-307) with minor modifications. A U-shaped microtiter plate (Linbro, Fisher Scientific, Göteborg, Sweden) was coated with STh-ovalbumin conjugate diluted in ELISA buffer (NaCl 128 mM, KCl 2.68 mM, KH2PO4 1.47 mM, Na2HPO4 8.10 mM; pH 7.0-7.2). The plate was covered with plate sealer and incubated overnight at 37° C. Contents of the wells were discarded by inversion. Additional protein binding sites were blocked by incubating with ovalbumin 1% (w/v) (Sigma-Aldrich) diluted in ELISA buffer. After incubation for 1 h at 37° C., wells were emptied and washed three times with wash buffer (ELISA buffer containing ovalbumin 0.05% (w/v) and Tween-20 0.05% (v/v)). 75 μL of samples containing STh and 75 μL of diluted antisera (Protein-A purified rabbit anti-STa kindly supplied by John D. Clements; Department of Microbiology and Immunology, Tulane University, New Orleans, USA) were added. Both dilutions were done in ELISA buffer containing ovalbumin 0.05% (w/v). Appropriate dilutions and concentrations of reagents were determined by checkerboard titrations. The plate was incubated for 2 h at 37° C., in a rotary incubator shaker (Infors HT, Bottmingen/Basel Switzerland) at 180 rpm. Wells were emptied and washed three times with wash buffer. 100 μL of anti-Rabbit IgG Alkaline Phosphatase Conjugate developed in goat (Sigma-Aldrich) diluted 1:400 in ELISA buffer with ovalbumin 0.05% (w/v) were add and incubated with not shaking for 1 h at 37° C. Wells were emptied and washed three times with wash buffer followed by addition of 100 μL of 4-Nitrophenyl phosphate disodium salt hexahydrate at 1 mg/mL in diethanolamine buffer (diethanolamine 9.7% (v/v), MgCl2×6H2O 0.49 mM; pH 9.8). After incubation for 30 min, the reaction was stopped with 50 μL 2N NaOH (VWR international) in each well. The absorbance was read in an automatic plate reader at 405 nm (FLUOstar OPTIMA; BMG Labtech, Germany). All samples were measured in triplicate.
as §1
ELISA-plates (Nunc Amino Immobilizer) were coated with STh-OvA conjugate in PBS, volume 100 μl per well (synthetic STh conjugated to OvA: For ST:G8 0.04 μl/well, for clone 29 and clone 30 0.01 μl/well). Plates were incubated overnight at 4 C. Subsequently, plates were emptied and blocked with PBS-T 1% OvA for 1h at 20° C. with shaking 180 rpm. […] Developing was stopped by adding 50 μl NaOH 2M to each well, and OD was read at 405 nm with a Fluostar Optima plate reader.

GC-C receptor = molecular target: T1, GC-C receptor (Homo sapiens, UniProt P25092); test: GC-C receptor T-84 cell assay (toxicity, cGMP levels) of culture filtrates; format: cell-based; conditions: relative to native STh; culture filtrate; ^2 = no detectable toxicity, set to detection limit 0.0014
T1 construct: endogenous in cells; host or cells: T-84 cells
T1 sequence (P25092 24-1073): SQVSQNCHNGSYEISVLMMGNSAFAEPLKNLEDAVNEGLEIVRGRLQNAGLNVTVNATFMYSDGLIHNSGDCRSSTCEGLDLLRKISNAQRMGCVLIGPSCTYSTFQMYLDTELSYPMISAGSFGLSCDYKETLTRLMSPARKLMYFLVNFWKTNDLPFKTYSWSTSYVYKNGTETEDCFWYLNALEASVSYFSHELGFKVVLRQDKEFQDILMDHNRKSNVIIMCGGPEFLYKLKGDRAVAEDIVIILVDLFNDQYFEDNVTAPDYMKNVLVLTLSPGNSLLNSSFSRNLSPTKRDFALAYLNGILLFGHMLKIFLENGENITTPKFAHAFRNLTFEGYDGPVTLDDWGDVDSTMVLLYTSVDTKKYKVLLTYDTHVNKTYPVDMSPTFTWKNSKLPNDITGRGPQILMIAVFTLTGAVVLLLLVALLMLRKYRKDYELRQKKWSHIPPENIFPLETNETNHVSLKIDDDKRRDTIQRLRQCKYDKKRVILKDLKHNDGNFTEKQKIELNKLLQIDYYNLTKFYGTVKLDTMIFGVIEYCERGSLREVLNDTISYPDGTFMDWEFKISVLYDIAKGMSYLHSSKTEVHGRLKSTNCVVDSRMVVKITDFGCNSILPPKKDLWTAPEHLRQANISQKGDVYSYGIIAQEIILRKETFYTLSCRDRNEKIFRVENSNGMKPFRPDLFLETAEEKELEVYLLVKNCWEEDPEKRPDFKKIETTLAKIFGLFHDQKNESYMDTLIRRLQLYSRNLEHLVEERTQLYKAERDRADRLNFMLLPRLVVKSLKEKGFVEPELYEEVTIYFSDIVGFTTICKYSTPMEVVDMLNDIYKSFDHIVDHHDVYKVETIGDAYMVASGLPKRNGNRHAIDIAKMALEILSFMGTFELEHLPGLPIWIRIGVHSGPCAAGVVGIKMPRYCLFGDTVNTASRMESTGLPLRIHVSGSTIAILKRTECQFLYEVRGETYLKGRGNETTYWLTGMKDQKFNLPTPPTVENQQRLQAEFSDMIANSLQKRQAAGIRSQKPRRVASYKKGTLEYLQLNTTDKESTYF
Experimental: T-84 cells were seeded and cultured in each well of a 24 well plate. After removing the Dulbecco's modified Eagle's medium (DMEM:F12 (1:1) Lonza Walkersville, Inc.), cells were washed 3 times with 0.5 mL DMEM. Cells were incubated with 0.25 mL DMEM containing 1 mM 3-isobutyl-1-methylxanthine (IBMX) for 10 min at 37° C. 0.1 mL of sample (culture filtrate) was added to each well and incubated for 60 min at 37° C. Following incubation, the reaction medium was aspirated, and the cells were lysed with […] HCl at room temperature for 20 min. The lysates were centrifuged at top speed for 10 min and the cGMP levels were measured in control- and agonist-stimulated cells with a direct cGMP enzyme immunoassay kit (Enzo Life Sciences, Inc.) according to the manufacturer's instructions.
The culture filtrate of each mutant was added to the T-84 cells in duplicate, and a serial dilution of culture filtrates with recombinantly expressed native ST was used to generate a standard curve.
Toxicity measured in culture filtrates is a product of intrinsic toxicity (toxicity per mol) and the concentration of the ST mutant. The same is true for antigenicity. […] Since we have no method for accurately measuring ST (mutant) concentrations in culture filtrates, we are not able to directly measure intrinsic toxicities and antigenicities for the ST mutants.
To circumvent this problem we measure toxicity and antigenicity for the ST mutants relative to native ST. This allows us to describe changes in toxicity and antigenicity in mutant culture filtrates. Next, we divide the change in antigenicity by the change in toxicity for each mutant. If the same culture filtrate has been used to measure toxicity and antigenicity this allows us to eliminate the of the concentration.

Molecule: uroguanylin (NDDCELCVNVACTGCL) [endogenous peptide ligand of the GC-C receptor]
- binding by anti-STp antibodies (anti-STp mAb clone 30): does not cross-react
- binding by anti-STh antibodies (anti-STh mAb ST:G8): bound

Molecule: guanylin (PGTCEICAYAACTGC) [endogenous peptide ligand of the GC-C receptor]
- binding by anti-STh antibodies (anti-STh mAb ST:G8): not

Molecule: NTFYCCELCCNPACAGCY [STp]
- binding by anti-STh antibodies (anti-STh mAb ST:G8): bound

Molecule: CC(C)C[C@@H]1NC(=O)[C@H](CCC(=O)O)NC(=O)[C@@H]2CSSC[C@@H]3NC(=O)[C@H](C)NC(=O)[C@@H]4CCCN4C(=O)[C@H](CC(N)=O)NC(=O)[C@H](CSSC[C@H](NC(=O)[C@H](Cc4ccc(O)cc4)NC(=O)[C@H](CC(N)=O)NC(=O)[C@H](CO)NC(=O)[C@H](CO)NC(=O)[C@@H](N)CC(N)=O)C(=O)N2)NC(=O)[C@H](CSSC[C@@H](C(=O)N[C@@H](Cc2ccc(O)cc2)C(=O)O)NC(=O)CNC(=O)[C@H](CCCNC(=N)N)NC3=O)NC1=O [Mutant T16R] (HELM PEPTIDE1{N.S.S.N.Y.C.C.E.L.C.C.N.P.A.C.R.G.C.Y}$PEPTIDE1,PEPTIDE1,6:R3-11:R3|PEPTIDE1,PEPTIDE1,7:R3-15:R3|PEPTIDE1,PEPTIDE1,10:R3-18:R3$$$V2.0)
- Toxicity (GC-C receptor): 0.0111

Molecule: NSSNYCCELCCNPACTGCY [STh]
- binding by anti-STh antibodies (anti-STh mAb ST:G8): bound

Molecule: CC(C)C[C@@H]1NC(=O)[C@H](CCC(=O)O)NC(=O)[C@@H]2CSSC[C@@H]3NC(=O)[C@H](C)NC(=O)[C@@H]4CCCN4C(=O)[C@H](CC(N)=O)NC(=O)[C@H](CSSC[C@H](NC(=O)[C@H](Cc4ccc(O)cc4)NC(=O)[C@H](CC(N)=O)NC(=O)[C@H](CO)NC(=O)[C@H](CC(N)=O)NC(=O)[C@@H](N)CC(N)=O)C(=O)N2)NC(=O)[C@H](CSSC[C@@H](C(=O)N[C@@H](Cc2ccc(O)cc2)C(=O)O)NC(=O)CNC(=O)[C@H]([C@@H](C)O)NC3=O)NC1=O [Mutant S02N] (HELM PEPTIDE1{N.N.S.N.Y.C.C.E.L.C.C.N.P.A.C.T.G.C.Y}$PEPTIDE1,PEPTIDE1,6:R3-11:R3|PEPTIDE1,PEPTIDE1,7:R3-15:R3|PEPTIDE1,PEPTIDE1,10:R3-18:R3$$$V2.0)
- Toxicity (GC-C receptor): 0.7308
